This is an account of results in patent US20100028892A1, “YEAST BASED EXPRESSION OF PROTEASES AND METHODS OF USE” (Burnham Institute for Medical Research, priority 2008, published 2010).

Test [1] addresses T1, Caspase10 activated with FADD (Homo sapiens, UniProt Q92851).
T1 construct: a small amount of each full-length Caspase construct was expressed with a large amount of adaptor protein FADD; FLAG (C); expressed in transfected cells; host or cells: Saccharomyces cerevisiae EGY48
T1 sequence (Q92851 1-479 isoform Q92851-2): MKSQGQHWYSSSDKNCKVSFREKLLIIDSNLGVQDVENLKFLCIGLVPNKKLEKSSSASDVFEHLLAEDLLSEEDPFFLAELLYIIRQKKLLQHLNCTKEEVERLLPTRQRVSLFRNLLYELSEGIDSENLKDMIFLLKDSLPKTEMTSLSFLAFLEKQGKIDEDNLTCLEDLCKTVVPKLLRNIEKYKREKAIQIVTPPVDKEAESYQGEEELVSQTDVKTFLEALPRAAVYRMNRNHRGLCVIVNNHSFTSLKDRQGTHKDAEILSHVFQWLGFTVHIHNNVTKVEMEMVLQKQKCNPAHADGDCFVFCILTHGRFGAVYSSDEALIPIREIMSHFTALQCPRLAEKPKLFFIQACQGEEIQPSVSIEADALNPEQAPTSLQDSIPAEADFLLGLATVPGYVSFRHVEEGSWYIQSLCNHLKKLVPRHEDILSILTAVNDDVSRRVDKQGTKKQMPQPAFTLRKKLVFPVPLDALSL
Description: yeast 384 well β-galactosidase reporter assay, Caspase10 activated with FADD. Format: cell-based. To be noted: Caspase10 activated with FADD in yeast, 384 well β-galactosidase activity assay. The text has this:
(§1) When converting the yeast-based protease reporter system to HTS assay, conditions from agar plates to liquid medium in microtiter wells must be revised. This revision comprises, utilizing the measured β-galactosidase produced by yeast carrying the Caspase-cleavable reporter proteins, and assaying the colorimetric product (OD620nm) derived from X-gal substrate in 384 well plates, as a measure of the lacZ reporter gene activity. We compared β-galactosidase activity produced in the presence or absence of the broad-spectrum caspase inhibitory compound, zVAD-fmk ([…]-Valinyl-Alaninyl-Aspartyl-fluoromethylketone). […] Note that it was determined that it is not advisible to employ glucose in yeast media because it represses the GAL1 promoter used in some plasmids. […]
(§2) Yeast expressing various Caspases alone (at high levels) or in combination with upstream activators (at low levels) and cleavable substrates containing appropriate tetrapeptides reorganized by these proteases were used in 384 well β-galactosidase activity assays to assess inhibition by zVAD-fmk. The compound was titrated into assays at various concentrations and percentage inhibition was determined.
(§3) Assays were performed in a total volume of […] in triplicate. […] Absorbance at 620 nm was measured 2-3 days after culture at 30° C.

The test system of the next test is Caspases. Put plainly: validation of 384 well yeast-based Caspase-dependent lacZ reporter gene assays with pharmacological inhibitors. Format: cell-based, human.
Excerpt: When converting the yeast-based protease reporter system to HTS assay, conditions from agar plates to liquid medium in microtiter wells must be revised. This revision comprises, utilizing the measured β-galactosidase produced by yeast carrying the Caspase-cleavable reporter proteins, and assaying the colorimetric product (OD620nm) derived from X-gal substrate in 384 well plates, as a measure of the lacZ reporter gene activity. We compared β-galactosidase activity produced in the presence or absence of the broad-spectrum caspase inhibitory compound, zVAD-fmk ([…]-Valinyl-Alaninyl-Aspartyl-fluoromethylketone). Among the variables that were initially interrogated were initial seeding cell density, time of culture, concentration of X-gal substrate, and supporting carbohydrate (raffinose vs mannose). Note that it was determined that it is not advisible to employ glucose in yeast media because it represses the GAL1 promoter used in some plasmids. An example of data obtained using the plural-component system of Fas/FADD/Caspase-8 is presented. All variables tested altered the signal:noise ratio of the assay. […] For the two-component system of ASC/Caspase-1 and for the plural-component system of NALP1ΔLRR/ASC/Caspase-1, the same conditions were optimal, among those tested (not shown). For the Fas/Fadd/Caspase 8, the caspase and adaptor protein (Fadd) were expressed at relatively small amounts (a weak promoter and low copy number plasmid are used) and the upstream activator (Fas) was expressed in a large amount.
The 384 well assay format was further validated, using zVAD-fmk, a peptidyl inhibitor with broad-spectrum activity against animal Caspases. […]
The validation results of a yeast-based Caspase assay using a pharmacological inhibitor of Caspases are shown in FIG. 11 consisting of FIGS. 11A-C (A) Caspase-1, single-component assay. […] For (A-C), relative absorbance at 620 nm was measured (mean ±std dev; n=3-5 independent experiments). […]
as §3

Test [2] deals with T2, Caspase9 activated with Apaf* (Homo sapiens, UniProt P55211).
T2 construct: Caspase (all full-length zymogen proforms) expression plasmids; HA (N); expressed in transfected cells; host or cells: Saccharomyces cerevisiae EGY48
T2 sequence (P55211 1-416): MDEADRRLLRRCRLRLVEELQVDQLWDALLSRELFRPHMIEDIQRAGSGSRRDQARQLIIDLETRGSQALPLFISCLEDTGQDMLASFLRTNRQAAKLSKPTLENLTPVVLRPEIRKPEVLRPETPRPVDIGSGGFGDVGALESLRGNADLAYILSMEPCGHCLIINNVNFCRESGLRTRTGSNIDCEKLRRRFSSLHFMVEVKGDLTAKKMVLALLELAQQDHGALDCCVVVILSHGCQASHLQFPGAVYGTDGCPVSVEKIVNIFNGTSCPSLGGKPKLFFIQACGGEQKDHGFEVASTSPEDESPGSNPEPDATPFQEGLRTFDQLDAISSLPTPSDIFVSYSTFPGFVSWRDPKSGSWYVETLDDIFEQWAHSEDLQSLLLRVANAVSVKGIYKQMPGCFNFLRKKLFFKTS
Put plainly: yeast 384 well β-galactosidase reporter assay, Caspase9 activated with Apaf*. Format: cell-based. The settings on record: Caspase9 activated with Apaf* in yeast, 384 well β-galactosidase activity assay.
Excerpt: as §1, §2, §3
In general terms: A reporter such as luciferase makes a cellular process visible.

For “benzoyl-Valinyl-Alaninyl-Aspartyl-fluoromethylketone [zVAD-fmk]”, the IC50 in test [1] is 9.52 µM; at Caspases (range over the yeast-based Caspase assays, 384 well format, read-out: concentration required for achieving 50% inhibition of β-galactosidase activity), 1 to 10 µM; in test [2], 10.7 µM. Moreover, the “effect on β-galactosidase activity / activation of the lacZ reporter gene” value in the test on Caspases (384 well yeast-based Caspase-dependent reporter gene assay) is “inhibited β-galactosidase activity in a dose-dependent fashion”.
